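Following 48 hours of exposure in 96-well plates, responses at five concentrations were used to interpolate endpoints linearly. At the TGI there is no net growth.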 Peptide text beside a SMILES is read from it. * marks the point of attachment. Boc = CC(C)(C)OC(=O)*; OBn = c1ccc(CO*)cc1
Assays:
Experiment in all cases: growth of human tumour cells (NCI), 48 h
A549 NSCLC = system: A549 NSCLC
TK-10 renal = system: TK-10 renal
LOX IMVI melanoma = system: LOX IMVI melanoma
OVCAR-3 ovarian = system: OVCAR-3 ovarian
DMS 114 small cell lung = system: DMS 114 small cell lung
DLD-1 colon = system: DLD-1 colon
LXFL 529 NSCLC = system: LXFL 529 NSCLC
KM20L2 colon = system: KM20L2 colon
XF 498 CNS = system: XF 498 CNS
SNB-78 CNS = system: SNB-78 CNS
DMS 273 small cell lung = system: DMS 273 small cell lung
M19-MEL melanoma = system: M19-MEL melanoma

Compound	TGI (A549 NSCLC)	TGI (TK-10 renal)	TGI (LOX IMVI melanoma)	TGI (OVCAR-3 ovarian)	further results
CNn1c(C)n[nH]c1=O	> 100 µM	> 100 µM	> 100 µM	> 100 µM	–
O=c1oc2ccccc2c(O)c1C(c1ccc(/C=C/c2ccccc2)cc1)c1c(O)c2ccccc2oc1=O	–	> 100 µM	73.3 µM	> 100 µM	–
CCSC1=N/C(=C\c2ccco2)C(Cl)=N1	> 100 µM	> 100 µM	> 100 µM	> 100 µM	–
CN(/N=C/c1ccccn1)C1=NCCCCN1	> 100 µM	> 100 µM	> 100 µM	> 100 µM	–
O=C(O)c1ccccc1C(=O)Nn1cnnc1	> 100 µM	> 100 µM	> 100 µM	> 100 µM	–
Cc1ccc(S(=O)(=O)NC2C(=O)c3ccccc3C(=O)C2n2cnc3ccccc32)cc1 (centres undefined)	> 100 µM	49.6 µM	> 100 µM	15.4 µM	–
COC(=O)C1=C(\c2ccccc2)c2ccccc2C(=O)N(C2CCCCC2)/C=C\1	> 100 µM	> 100 µM	37.7 µM	79.4 µM	–
O=C(O)c1ccc2c(c1)CC1(C2)Cc2ccccc2C1=O (centres undefined)	> 100 µM	> 100 µM	> 100 µM	> 100 µM	–
CC(=O)OC1COC(n2c(-c3ccc(Cl)cc3)cc(-c3ccccc3)c(C#N)c2=S)C(OC(C)=O)C1OC(C)=O (centres undefined)	30.6 µM	> 73.4 µM	15.5 µM	18.2 µM	–
NC(N)=N/N=C/c1c(-c2ccc([N+](=O)[O-])cc2)nc2n1CCS2	36.2 µM	31.5 µM	35 µM	41.3 µM	–
COc1ccc(C2=C(N)c3c(OC)cccc3C2=O)cc1	–	–	> 100 µM	> 100 µM	–
COc1ccc2c(c1)N=C1CSC(c3cccc(Br)c3)N1C2 (centres undefined)	48.1 µM	41 µM	50 µM	–	–
COc1cc(NP(=O)(Oc2ccccc2)Oc2ccccc2)ccc1Nc1c2ccccc2nc2c1[nH]c1ccccc12	2.22 µM	12.3 µM	> 100 µM	4.82 µM	–
Cc1ccc(SCC(CF)OCn2cc(F)c(=O)[nH]c2=O)cc1 (centres undefined)	> 100 µM	> 100 µM	> 100 µM	> 100 µM	–
c1ccc(Nc2nnc(Cn3ccc4ccccc43)s2)cc1	> 100 µM	> 100 µM	> 100 µM	> 100 µM	–
COc1cc(NCc2ccc3nc(OC)c(OC)nc3c2)cc(OC)c1OC	> 100 µM	–	> 100 µM	> 100 µM	–
COc1c2ccccc2c(OC)c2nc(C)ccc12	> 100 µM	> 100 µM	56.1 µM	> 100 µM	–
[O-][n+]1onc(-c2ccccc2)c1CN1CCOCC1	> 100 µM	> 100 µM	> 100 µM	> 100 µM	–
COc1ccc(C(c2c[nH]c3ccc(Br)cc23)c2c[nH]c3ccc(Br)cc23)cc1	1.22 µM	2.27 µM	0.314 µM	0.52 µM	–
COc1cc(C2C3=C(COC3=O)Oc3cc4c(cc32)OCO4)ccc1OC(C)=O (centres undefined)	> 100 µM	> 100 µM	> 100 µM	–	–

Compound	TGI (A549 NSCLC)	TGI (TK-10 renal)	TGI (LOX IMVI melanoma)	TGI (OVCAR-3 ovarian)	further results
COC1CC(OC2CCC3(C)C(CCC45CCC(C6=CC(=O)OC6)C(C)(CCC43)C5=O)C2)OC(C)C1O (centres undefined)	> 100 µM	> 100 µM	> 100 µM	82 µM	–
N#Cc1sc2c(c1OC(=O)c1cccs1)c(=O)n(-c1ccccc1)c(=S)n2-c1ccccc1	> 100 µM	> 100 µM	54.2 µM	> 100 µM	–
Fc1ccccc1-c1nn2c(C34CC5CC(CC(C5)C3)C4)nnc2s1	> 100 µM	–	> 100 µM	> 100 µM	–
COc1ccc2cc(/C=N\NC(=O)Nc3cccc4ccccc34)ccc2c1	> 100 µM	56.5 µM	> 100 µM	–	–
CC(=O)N(CCc1ccccc1)C(C#N)c1ccc(OCCCCCCCCCCOc2ccc(C(C#N)N(CCc3ccccc3)C(C)=O)cc2)cc1 (centres undefined)	> 100 µM	> 100 µM	> 100 µM	> 100 µM	–
Cn1c(NS(=O)(=O)c2ccccc2)nc2ccccc21	> 100 µM	> 100 µM	–	–	–
O=c1c2cccnc2cc(-c2ccccc2)n1CCO	> 100 µM	> 100 µM	> 100 µM	> 100 µM	–
O=c1oc2ccccc2nc1/C=C(\O)c1ccc([N+](=O)[O-])cc1	> 100 µM	> 100 µM	–	> 100 µM	–
Cc1ccc(Nc2nc(N)nc3c2ncn3C2OC(CO)C(O)C2O)cc1 (centres undefined)	> 100 µM	> 100 µM	> 100 µM	> 100 µM	–
O=C1c2ccccc2-c2ccc(N=Nc3c(O)ccc4ccccc34)cc21	> 100 µM	> 100 µM	> 100 µM	> 100 µM	–
Nc1cn(Cc2ccccc2)c2nc(/C=C3/C=CC=CC3=O)c(O)n12	> 100 µM	> 100 µM	> 100 µM	> 100 µM	–
CC(C)(C)[Si](C)(C)OCC1CCC(n2cnc3c(N)ncnc32)O1 (centres undefined)	–	> 100 µM	> 100 µM	> 100 µM	–
CC(NC(=O)CNC(=O)OC(C)(C)C)C(=O)NC(Cc1ccccc1)C(=O)OCc1ccccc1 (stereo not drawn) (Boc-Gly-Ala-Phe-OBn; configuration not given here)	> 100 µM	> 100 µM	> 100 µM	–	–
CC/C=C/C(=O)CC(O)(C(F)(F)F)C(F)(F)F	> 100 µM	> 100 µM	> 100 µM	–	–
Cc1cccc(C)c1NC(=S)NC=C(C(N)=O)C(N)=O	> 100 µM	> 100 µM	> 100 µM	> 100 µM	–
O=C1CCC2CCC1C2 (centres undefined)	> 100 µM	> 100 µM	> 100 µM	> 100 µM	–
NNc1nc2ccccc2s1	> 100 µM	> 100 µM	> 100 µM	–	–
CCOC(=O)C(NC(=O)CC(C)C)(Nc1ccc(S(=O)(=O)Nc2nc(C)cc(C)n2)cc1)C(F)(F)F (centres undefined)	> 100 µM	> 100 µM	> 100 µM	> 100 µM	–
COC(=O)C1[C@@H](C(=O)OC)C12C=Cc1ccccc1C=C2 (some centres undefined)	> 100 µM	> 100 µM	> 100 µM	> 100 µM	TGI (DMS 114 small cell lung): > 100 µM; TGI (DLD-1 colon): > 100 µM; TGI (LXFL 529 NSCLC): > 100 µM; TGI (KM20L2 colon): > 100 µM; TGI (XF 498 CNS): > 100 µM; TGI (SNB-78 CNS): > 100 µM; TGI (DMS 273 small cell lung): > 100 µM; TGI (M19-MEL melanoma): > 100 µM
